In assay [1] the target is T1, Neurotensin receptor type 1 (Homo sapiens, UniProt P30989). Put plainly: Displacement of [3H]neurotensin from human NTS1 receptor expressed in CHOK1 cells after 60 mins by beta plate liquid scintillation counter. It is filed as cell-based. A general note: Displacement assays read how much labelled ligand stays bound in the presence of the test substance.
The target in assay [2] is T1, Neurotensin receptor type 1. The experiment in a line: Antagonist activity at human NTS1 receptor expressed in CHOK1 cells assessed as inhibition of intracellular calcium elevation pretreated 30 mins before with SR-48692 by FLIPR assay. It is filed as functional, cell-based, CHO-K1. In general terms: A change in cytosolic calcium serves as a functional read-out for many receptors and channels.

Active and inactive are the calls of the source. The rule behind the calls is not given here.

T1 sequence (P30989 whole entry): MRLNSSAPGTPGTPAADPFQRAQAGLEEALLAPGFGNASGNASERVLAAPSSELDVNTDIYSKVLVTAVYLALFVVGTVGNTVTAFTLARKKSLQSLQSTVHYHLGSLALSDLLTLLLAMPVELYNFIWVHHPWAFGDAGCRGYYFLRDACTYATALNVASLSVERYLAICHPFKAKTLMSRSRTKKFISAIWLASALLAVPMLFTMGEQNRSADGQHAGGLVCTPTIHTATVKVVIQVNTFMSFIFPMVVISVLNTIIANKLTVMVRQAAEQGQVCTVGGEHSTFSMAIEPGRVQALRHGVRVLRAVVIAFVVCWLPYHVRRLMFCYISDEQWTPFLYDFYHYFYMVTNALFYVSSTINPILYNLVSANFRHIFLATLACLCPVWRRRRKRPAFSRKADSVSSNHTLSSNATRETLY

What is called IC50 is the point on the concentration scale where inhibition reaches its midpoint. Regarding `CC(C)CC(NC(=O)OCC1c2ccccc2-c2ccccc21)C(=O)O` (centres undefined), in assay [1] (CHO-K1), the outcome was inactive. Besides, the IC50 in assay [2] is 3.79 nM.
Usually Ki stands for a dissociation constant, usually derived from enzyme kinetics or from competition with a known ligand. A lower Ki goes with a stronger hold on the target. With `CC(C)C[C@@H](NC(=O)Cn1ccc2cc(NS(=O)(=O)c3cccc4cccnc34)ccc21)C(=O)O`, the inhibition constant (Ki) in assay [1] amounted to 545 nM. Also, in assay [2], the 50% inhibitory concentration (IC50) was determined as 3.76 nM.

These data come from ChEMBL document CHEMBL1143436 (Bioorg Med Chem Lett, 2008).
